Calls of active or inactive are those of the source. The rule behind the calls is not given here.
How the values were obtained:
[1] = system: Mus musculus; test: Narcotic agonist activity in sc dosed albino mouse assessed as protection against acetylcholine-induced writhing administered 20 mins prior to acetylcholine challenge measured for 2 mins; type: functional
[2] = system: Rattus norvegicus; test: Narcotic antagonist activity in rat assessed as inhibition of phenazocine-induced response at 80 mg/kg, sc; type: functional, organism-based; parameters: dose 80 mg/kg
[3] = system: Rattus norvegicus; test: Narcotic antagonist activity in sc dosed rat assessed as 50% inhibition of phenazocine-induced response; type: functional
[4] = system: Mus musculus; test: Narcotic agonist activity in albino mouse assessed as protection against acetylcholine-induced writhing at 25 mg/kg, sc administered 20 mins prior to acetylcholine challenge measured for 2 mins relative to control; type: functional; details: route subcutaneous
[5] = system: Rattus norvegicus; test: Narcotic antagonist activity in rat assessed as inhibition of phenazocine-induced response at 80 mg/kg, sc relative to nalorphine; type: functional; parameters: scale not given: the % may be the effect or the level left; details: route subcutaneous
[6] = Mus musculus, sc, read-out: ED50

With `CCC(C)(O)CC[C@@H]1[C@H]2Cc3ccc(O)cc3[C@@]1(C)CCN2C.CS(=O)(=O)O` (stereo not given in full) the ED50 [1, 6] was 3.3 mg/kg and the inhibition [2] was “inactive”.

In the case of `CCCC(C)(O)CC[C@@H]1[C@H]2Cc3ccc(O)cc3[C@@]1(C)CCN2CC1CC1.CS(=O)(=O)O` (stereo not given in full), the ED50 [1, 6] was 7.6 mg/kg and the AD50 [3] was 0.019 mg/kg.

For `CCCCC(C)(O)CC[C@@H]1[C@H]2Cc3ccc(O)cc3[C@@]1(C)CCN2C.CS(=O)(=O)O` (stereo not given in full), the ED50 [1, 6] was 2.5 mg/kg and the inhibition [2] was “inactive”.

`CCCCC(C)(O)CC[C@@H]1[C@H]2Cc3ccc(O)cc3[C@@]1(C)CCN2CC1CC1.CS(=O)(=O)O` (stereo not given in full) was tested, and the ED50 [1, 6] was 6.5 mg/kg and the AD50 [3] was 0.025 mg/kg.

`CN1CC[C@]2(C)c3cc(O)ccc3C[C@@H]1[C@@]2(C)CCC(C)(O)C(C)(C)C.CS(=O)(=O)O` (mixture of isomers) was tested, and the ED50 [1, 6] was > 25 mg/kg, the AD50 [3] was 0.33 mg/kg and the Activity [4] was <50%. For the same molecule, the Activity [5] was 30%.

`CN1CC[C@]2(C)c3cc(O)ccc3C[C@@H]1[C@H]2CCC(C)(O)C(C)(C)C.CS(=O)(=O)O` (stereo in doubt; 4e) was tested, and the ED50 [1] was >75 mg/kg and the Activity [4] was <50%.

With `CC(C)(C)C(C)(O)CC[C@]1(C)[C@H]2Cc3ccc(O)cc3[C@@]1(C)CCN2CC1CC1.CS(=O)(=O)O` (single isomer, unassigned; isomer II) the AD50 [3] was 0.71 mg/kg.

With `CC(C)(C)C(C)(O)CC[C@@H]1[C@H]2Cc3ccc(O)cc3[C@@]1(C)CCN2CC1CC1.CS(=O)(=O)O` (single isomer, unassigned; isomer I) the ED50 [1] was >25 mg/kg, the AD50 [3] was 0.27 mg/kg and the Activity [4] was <50%.

With `CC(C)(C)C(C)(O)CC[C@]1(C)[C@H]2Cc3ccc(O)cc3[C@@]1(C)CCN2CC1CC1.CS(=O)(=O)O` (stereo in doubt; 4q) the AD50 [3] was 0.022 mg/kg and the Activity [4] was <50%.

With `CCCC(C)(O)CC[C@@H]1[C@H]2Cc3ccc(O)cc3[C@@]1(C)CCN2C.CS(=O)(=O)O` (stereo not given in full) the ED50 [1, 6] was 2.6 mg/kg and the inhibition [2] was “inactive”.

Molecule `CC(C)(C)C(C)(O)CC[C@@H]1[C@H]2Cc3ccc(O)cc3[C@@]1(C)CCN2CC1CC1.CS(=O)(=O)O` (single isomer, unassigned; isomer II) has an ED50 [1] of 9 mg/kg and an AD50 [3] of 1.1 mg/kg.

`CO[C@@]12CC[C@@]3(C[C@@H]1[C@](C)(O)C(C)(C)C)[C@H]1Cc4ccc(O)c5c4[C@@]3(CCN1CC1CC1)[C@H]2O5` [BUPRENORPHINE] showed an AD50 [3] of 0.11 mg/kg.

For `CN1CC[C@]2(C)c3cc(O)ccc3C[C@@H]1[C@H]2CCC(C)(O)C(C)(C)C` (stereo in doubt; 4f), the inhibition [2] was “inactive”.

For `CN1CC[C@]2(C)c3cc(O)ccc3C[C@@H]1[C@H]2CCC(C)(C)O`, the ED50 [1, 6] was 8.2 mg/kg and the inhibition [2] was “inactive”.

`CC(C)(O)CC[C@@H]1[C@H]2Cc3ccc(O)cc3[C@@]1(C)CCN2CC1CC1` showed an ED50 [1, 6] of 16 mg/kg and an AD50 [3] of 0.046 mg/kg.

In the case of `CN1CC[C@]2(C)c3cc(O)ccc3C[C@@H]1[C@@]2(C)CCC(C)(O)C(C)(C)C` (stereo not given in full) [listing 1 of 2 here], the inhibition [2] was “inactive”.

With `CN1CC[C@]2(C)c3cc(O)ccc3C[C@@H]1[C@H]2CCC(C)(O)C(C)(C)C.CS(=O)(=O)O` (stereo in doubt; 4f) the ED50 [1] was >25 mg/kg.

Molecule `CN1CC[C@]2(C)c3cc(O)ccc3C[C@@H]1[C@@]2(C)CCC(C)(C)O` has an ED50 [1, 6] of 3.8 mg/kg and an AD50 [3] of 2.3 mg/kg.

With `C[C@H]1[C@@H]2Cc3ccc(O)cc3[C@]1(C)CCN2C` [METAZOCINE] the ED50 [1, 6] was 0.54 mg/kg and the inhibition [2] was “inactive”.

Molecule `C=CCN1CC[C@]23c4c5ccc(O)c4O[C@H]2[C@@H](O)C=C[C@H]3[C@H]1C5` [NALORPHINE] has an AD50 [3] of 0.1 mg/kg.

Work on `C[C@H]1[C@H]2Cc3ccc(O)cc3[C@]1(C)CCN2CC1CC1` [CYCLAZOCINE] yielded an ED50 [1, 6] of 0.15 mg/kg and an AD50 [3] of 0.007 mg/kg.

In the case of `CN1CC[C@]2(C)c3cc(O)ccc3C[C@@H]1[C@@]2(C)CCC(C)(O)C(C)(C)C` (stereo not given in full) [listing 2 of 2 here], the ED50 [1, 6] was > 25 mg/kg and the Activity [4] was <50%.

`CC(C)(O)CC[C@]1(C)[C@H]2Cc3ccc(O)cc3[C@@]1(C)CCN2CC1CC1.Cl` was tested, and the ED50 [1, 6] was 4.5 mg/kg and the AD50 [3] was 0.006 mg/kg.

Molecule `CCC(C)(O)CC[C@@H]1[C@H]2Cc3ccc(O)cc3[C@@]1(C)CCN2CC1CC1.CS(=O)(=O)O` (stereo not given in full) has an ED50 [1, 6] of 7.9 mg/kg and an AD50 [3] of 0.04 mg/kg.
